Where two headings read alike, the source gives them in different places. Bridge positions count the residues as written; N and C are the ends. Square brackets hold non-standard residues; d marks the D form. Peptide text beside a SMILES is read from it. Dab = NCC[C@H](N)C(=O)O
Columns and labels:
Assay type in all cases: cell-based, Acinetobacter baumannii
A. baumannii 401046-18 = assay: broth microdilution checkerboard MIC/synergy; conditions: strain 401046-18; for MICs alone: antibiotic alone
Method: (§1) Checkerboards were performed according to the CLSI parameters used for microbroth dilution MIC5. CA-MHB, iron-depleted CA-MHB (ID-CA-MHB) or RPMI supplemented with 10% FCS medium were used as specified and ID-CA-MHB was prepared according to CLSI guidelines. […] FICI is calculated as follows: […]

A. baumannii UNT239-1 = assay: broth microdilution checkerboard MIC/synergy; conditions: strain UNT239-1; for MICs alone: antibiotic alone
Method: as §1

A. baumannii IHMA867231 = assay: broth microdilution checkerboard MIC/synergy; conditions: strain IHMA867231; for MICs alone: antibiotic alone
Method: as §1

A. baumannii IHMA863866 = assay: broth microdilution checkerboard MIC/synergy; conditions: strain IHMA863866; for MICs alone: antibiotic alone
Method: as §1

A. baumannii UNT087-1 = assay: broth microdilution checkerboard MIC/synergy; conditions: strain UNT087-1; for MICs alone: antibiotic alone
Method: as §1

A. baumannii IHMA1013816 = assay: broth microdilution checkerboard MIC/synergy; conditions: strain IHMA1013816; for MICs alone: antibiotic alone
Method: as §1

A. baumannii UNT191-1 = assay: broth microdilution checkerboard MIC/synergy; conditions: strain UNT191-1; for MICs alone: antibiotic alone
Method: as §1

A. baumannii IHMA919656 = assay: broth microdilution checkerboard MIC/synergy; conditions: strain IHMA919656; for MICs alone: antibiotic alone
Method: as §1

A. baumannii 402292-17 = assay: broth microdilution checkerboard MIC/synergy; conditions: strain 402292-17; for MICs alone: antibiotic alone
Method: as §1

A. baumannii UNT238-1 = assay: broth microdilution checkerboard MIC/synergy; conditions: strain UNT238-1; for MICs alone: antibiotic alone
Method: as §1

A. baumannii 401255-18 = assay: broth microdilution checkerboard MIC/synergy; conditions: strain 401255-18; for MICs alone: antibiotic alone
Method: as §1

A. baumannii HUMC1 = assay: broth microdilution checkerboard MIC/synergy; conditions: strain HUMC1; for MICs alone: antibiotic alone
Method: as §1

A. baumannii ACC00535 = assay: broth microdilution checkerboard MIC/synergy; conditions: strain ACC00535; rifabutin/SPR741 in combination
Method: as §1

A. baumannii IHMA690517 = assay: broth microdilution checkerboard MIC/synergy; conditions: strain IHMA690517; for MICs alone: antibiotic alone
Method: as §1

A. baumannii 402608-17 = assay: broth microdilution checkerboard MIC/synergy; conditions: strain 402608-17; for MICs alone: antibiotic alone
Method: as §1

A. baumannii UNT091-1 = assay: broth microdilution checkerboard MIC/synergy; conditions: strain UNT091-1; for MICs alone: antibiotic alone
Method: as §1

[1] = tested on: panel of MDR clinical isolates of A. baumannii
Method: as §1

[2] = tested on: A. baumannii LAC-4 strain; assay: broth microdilution checkerboard MIC/synergy; conditions: for MICs alone: antibiotic alone
Method: as §1
The checkerboards were performed in CA-MHB or ID-CA-MHB for cefiderocol.

[3] = rifabutin/SPR741 in combination
[4] = rifabutin/colistin checkerboard, CA-MHB
[5] = rifampicin/colistin checkerboard
[6] = rifampicin/colistin in combination
[7] = rifabutin/colistin in combination, CA-MHB
[8] = second antibiotic in combination with rifabutin, LAC-4, CA-MHB

## CC(=O)N[C@H](C(=O)N[C@H](CO)C(=O)N[C@H]1CCNC(=O)[C@H]([C@@H](C)O)NC(=O)[C@H](CCN)NC(=O)[C@H](CCN)NC(=O)[C@H](CC(C)C)NC(=O)[C@@H](Cc2ccccc2)NC(=O)[C@H](CCN)NC1=O)[C@@H](C)O [SPR741] (Ac-T[dS][Dab][Dab][dF]L[Dab][Dab]T; lactam 3-C)
A. baumannii 401046-18; [3]
  MICs combi / in combination: 8 mg/L
A. baumannii UNT239-1; [3]
  MICs combi / in combination: 4 mg/L
A. baumannii IHMA867231; [3]
  MICs combi / in combination: 32 mg/L
A. baumannii IHMA863866; [3]
  MICs combi / in combination: 16 mg/L
A. baumannii UNT087-1; [3]
  MICs combi / in combination: 8 mg/L
A. baumannii IHMA1013816; [3]
  MICs combi / in combination: 16 mg/L
A. baumannii UNT191-1; [3]
  MICs combi / in combination: 4 mg/L
A. baumannii IHMA919656; [3]
  MICs combi / in combination: 8 mg/L
A. baumannii 402292-17; [3]
  MICs combi / in combination: 32 mg/L
A. baumannii UNT238-1; [3]
  MICs combi / in combination: 4 mg/L
A. baumannii 401255-18; [3]
  MICs combi / in combination: 4 mg/L
A. baumannii HUMC1; [3]
  MICs combi / in combination: 4 mg/L
A. baumannii ACC00535
  MICs combi / in combination: 4 mg/L
A. baumannii IHMA690517; [3]
  MICs combi / in combination: 16 mg/L
A. baumannii 402608-17; [3]
  MICs combi / in combination: 16 mg/L
A. baumannii UNT091-1; [3]
  MICs combi / in combination: 2 mg/L
[1]; higher than the one of colistin
  SPR741 concentration required to achieve synergy with rifabutin, relative to colistin: at least 8 fold
[1]; rifabutin with SPR741
  strains on which synergy was observed: 88%
[2]; strain LAC-4, rifabutin/SPR741 in combination
  MICs combi / in combination: 4 mg/L

## colistin
A. baumannii 401046-18; [4]
  MICs alone: 0.5 mg/L
A. baumannii 401046-18; [5]
  MICs alone: 0.25 mg/L
A. baumannii 401046-18; [6]
  MICs combi: 0.06 mg/L
A. baumannii UNT239-1; [4]
  MICs alone: 1 mg/L
A. baumannii UNT239-1; [5]
  MICs alone: 1 mg/L
A. baumannii UNT239-1; [7]
  MICs combi: 0.25 mg/L
A. baumannii UNT239-1; [6]
  MICs combi: 0.25 mg/L
A. baumannii IHMA867231; [4]
  MICs alone: 32 mg/L
A. baumannii IHMA867231; [5]
  MICs alone: 32 mg/L
A. baumannii IHMA867231; [7]
  MICs combi: 4 mg/L
A. baumannii IHMA867231; [6]
  MICs combi: 4 mg/L
A. baumannii IHMA863866; [4]
  MICs alone: >512 mg/L
A. baumannii IHMA863866; [5]
  MICs alone: 512 mg/L
A. baumannii IHMA863866; [7]
  MICs combi: 1 mg/L
A. baumannii IHMA863866; [6]
  MICs combi: 0.5 mg/L
A. baumannii UNT087-1; [4]
  MICs alone: 1 mg/L
A. baumannii UNT087-1; [5]
  MICs alone: 0.5 mg/L
A. baumannii UNT087-1; [7]
  MICs combi: 0.25 mg/L
A. baumannii IHMA1013816; [4]
  MICs alone: 16 mg/L
A. baumannii IHMA1013816; [5]
  MICs alone: 32 mg/L
A. baumannii IHMA1013816; [7]
  MICs combi: <0.5 mg/L
A. baumannii IHMA1013816; [6]
  MICs combi: <0.5 mg/L
A. baumannii UNT191-1; [4]
  MICs alone: 2 mg/L
A. baumannii UNT191-1; [5]
  MICs alone: 1 mg/L
A. baumannii UNT191-1; [7]
  MICs combi: 0.5 mg/L
A. baumannii UNT191-1; [6]
  MICs combi: 0.25 mg/L
A. baumannii IHMA919656; [4]
  MICs alone: 512 mg/L
A. baumannii IHMA919656; [5]
  MICs alone: 512 mg/L
A. baumannii IHMA919656; [7]
  MICs combi: 1 mg/L
A. baumannii IHMA919656; [6]
  MICs combi: 1 mg/L
A. baumannii 402292-17; [4]
  MICs alone: 1 mg/L
A. baumannii 402292-17; [5]
  MICs alone: 0.25 mg/L
A. baumannii 402292-17; [7]
  MICs combi: 0.25 mg/L
A. baumannii UNT238-1; [4]
  MICs alone: 0.25 mg/L
A. baumannii UNT238-1; [5]
  MICs alone: 0.5 mg/L
A. baumannii UNT238-1; [7]
  MICs combi: 0.06 mg/L
A. baumannii 401255-18; [4]
  MICs alone: 0.25 mg/L
A. baumannii 401255-18; [5]
  MICs alone: 0.25 mg/L
A. baumannii 401255-18; [7]
  MICs combi: 0.06 mg/L
A. baumannii 401255-18; [6]
  MICs combi: 0.06 mg/L
A. baumannii HUMC1; [4]
  MICs alone: 0.5 mg/L
A. baumannii HUMC1; [5]
  MICs alone: 0.5 mg/L
A. baumannii IHMA690517; [4]
  MICs alone: 16 mg/L
A. baumannii IHMA690517; [5]
  MICs alone: 16 mg/L
A. baumannii IHMA690517; [7]
  MICs combi: 0.5 mg/L
A. baumannii IHMA690517; [6]
  MICs combi: <0.5 mg/L
A. baumannii 402608-17; [4]
  MICs alone: 1 mg/L
A. baumannii 402608-17; [5]
  MICs alone: 1 mg/L
A. baumannii 402608-17; [7]
  MICs combi: 0.25 mg/L
A. baumannii 402608-17; [6]
  MICs combi: 0.25 mg/L
A. baumannii UNT091-1; [4]
  MICs alone: 0.5 mg/L
A. baumannii UNT091-1; [5]
  MICs alone: 0.5 mg/L
[1]; in combination with rifabutin, colistin resistant strains, CA-MHB
  reduction of colistin MICs: at least 16 fold
[1]; rifabutin with colistin, CA-MHB, 16 MDR isolates
  strains on which synergy was observed: 100%
[2]; [8]
  FICI: 0.254
  Interpretation: synergy (synergy (FICI≤0.5))
[2]; strain LAC-4, rifabutin/colistin checkerboard, CA-MHB
  MICs alone: 0.5 mg/L
[2]; strain LAC-4, rifampicin/colistin checkerboard
  MICs alone: 0.5 mg/L
